system: Type IV PDE; assay: Type IV PDE inhibitory activity; type: biochemical; settings: Type IV PDE partially purified from rat neutrophils; 3H-cAMP substrate, 30° C., 30 minutes
Experimental: Type I, III, IV, and V PDE isozymes were prepared to study the PDE inhibitory activities of and selectivities with the compound of the invention [Trends Pharmacol Sci., 12, 19-27 (1992)]. Type I PDE was purchased from Sigma Corp. Type III, IV, and V PDE isozymes were partially purified from platelets (Type III and V) or neutrophils (Type IV) collected from rats. Each enzyme source was homogenized in a buffer (pH 6.5) containing 20 mM bisTris, 2 mM EDTA (i.e., ethylenediamine tetraacetate), 0.1 mM PMSF (i.e., phenylmethylsulfonyl fluoride), 5 mM 2-mercaptoethanol, 0.001 mM pepstatin and 0.01 mM leupeptin and was centrifuged at 30000×G for 30 minutes to obtain a supernatant, which was applied to an ion exchange column (Q-sepharose First Flow, Pharmacia Corp.) and was eluted with 0 to 1M sodium acetate. Partially purified isozymes were identified by observing the effects by conventional inhibitors.
Each PDE isozyme and the test compound dissolved in DMSO (i.e., dimethyl sulfoxide) were added to 50 mM Tris-HCl buffer containing 5 mM magnesium chloride. ^3 H-cAMP (for type III and IV PDE) or ^3 H-cGMP (for type I and V PDE) were added as substrates and were reacted at 30° C. for 30 minutes. The reaction was terminated by placing the test tube in boiling water of 100° C. for 5 minutes. The nucleotides formed by PDE were broken down by 5'-nucleotidase to ^3 H-adenosine or 3H-guanosine. The unreacted substrate and reaction product were separated through an ion-exchange column (i.e., QAE sephadex, Pharmacia Corp.) The eluted ^3 H-nucleoside was measured for its radioactivity by a liquid scintillation counter. The inhibitory activities of the compound of the present invention are shown by the IC50 value (M). Further, the inhibitory activities of the test samples against Type I, III, and V are 1/10 or less than that against type IV.

Row | Compound | IC50
1 | COc1ccc(C2(c3ccccc3)CNC(=O)CO2)cc1OC1Cc2ccccc2C1 (stereo not drawn) [Compound No. 24, 2-[3-(2-indanyloxy)-4-methoxyphenyl]-2-phenylmorpholin-5-one] | 30 nM
2 | COc1ccc(C2CNC(=O)CO2)cc1OC1CCCCC1 (stereo not drawn) [Compound No. 7, 2-(3-cyclohexyloxy-4-methoxyphenyl)morpholin-5-one] | 11000 nM
3 | COc1ccc(C2CNC(=O)CO2)cc1OC1Cc2ccccc2C1 (stereo not drawn) [Compound No. 6, 2-[3-(2-indanyloxy)-4-methoxyphenyl]morpholin-5-one] | 320 nM
4 | COc1ccc(C2(c3ccccc3)CN(C)C(=O)CO2)cc1OC1Cc2ccccc2C1 (stereo not drawn) [Compound No. 25, 2-[3-(2-indanyloxy)-4-methoxyphenyl]-4-methyl-2-phenylmorpholin-5-one] | 110 nM
5 | CCCCN1CC(c2ccc(OC)c(OC3CCCC3)c2)OCC1=O (stereo not drawn) [Compound No. 19, 4-butyl-2-(3-cyclopentyloxy-4-methoxyphenyl)morpholin-5-one] | 5900 nM
6 | COc1ccc(C2CNC(=O)CO2)cc1OCCc1ccccc1 (stereo not drawn) [Compound No. 4, 2-(4-methoxy-3-phenethyloxyphenyl)morpholin-5-one] | 2700 nM
7 | COc1ccc(C2(C)CNC(=O)CO2)cc1OC1CCCC1 (stereo not drawn) [Compound No. 10, 2-(3-cyclopentyloxy-4-methoxyphenyl)-2-methylmorpholin-5-one] | 3000 nM
8 | COc1ccc(C2CN(C(C)=O)C(=O)CO2)cc1OC1CCCC1 (stereo not drawn) [Compound No. 20, 4-acetyl-2-(3-cyclopentyloxy-4-methoxyphenyl)morpholin-5-one] | 2000 nM
9 | COc1ccc(C2CNC(=O)CO2)cc1OCc1ccccc1 (stereo not drawn) [Compound No. 3, 2-(3-benzyloxy-4-methoxyphenyl)morpholin-5-one] | 28000 nM
10 | COc1ccc(C2CN(Cc3ccncc3)C(=O)CO2)cc1OC1CCCC1 (stereo not drawn) [Compound No. 16, 2-(3-cyclopentyloxy-4-methoxyphenyl)-4-(4-pyridylmethyl)morpholin-5-one] | 5500 nM
11 | COc1ccc(C2(c3ccccc3)CN(Cc3ccncc3)C(=O)CO2)cc1OC1CCCC1 (stereo not drawn) [Compound No. 23, 2-(3-cyclopentyloxy-4-methoxyphenyl)-2-phenyl-4-(4-pyridylmethyl)morpholin-5-one] | 2400 nM
12 | CCN1CC(c2ccc(OC)c(OC3CCCC3)c2)OCC1=O (stereo not drawn) [Compound No. 17, 2-(3-cyclopentyloxy-4-methoxyphenyl)-4-ethylmorpholin-5-one] | 710 nM
13 | COc1ccc(C2(c3ccccc3)CN(C)C(=O)CO2)cc1OC1CCCC1 (stereo not drawn) [Compound No. 22, 2-(3-cyclopentyloxy-4-methoxyphenyl)-4-methyl-2-phenylmorpholin-5-one] | 250 nM
14 | COc1ccc(C2(c3ccccc3)CNC(=O)CO2)cc1OC1CCCC1 (stereo not drawn) [Compound No. 11, 2-(3-cyclopentyloxy-4-methoxyphenyl)-2-phenylmorpholin-5-one] | 74 nM
15 | COc1ccc(C2CN(C)C(=O)CO2)cc1OC (stereo not drawn) [Compound No. 12, 2-(3.4-dimethoxyphenyl)-4-methylmorpholin-5-one] | 4700 nM
16 | COc1ccc(C2CN(C)C(=O)CO2)cc1OC1Cc2ccccc2C1 (stereo not drawn) [Compound No. 21, 2-[3-(2-indanyloxy)-4-methoxyphenyl]-4-methylmorpholin-5-one] | 44 nM

The remaining lines, values ahead:

Row | IC50 | Compound
17 | 620 nM | COc1ccc(C2CNC(=O)CO2)cc1OCCCCCc1ccccc1 (stereo not drawn) [Compound No. 26, 2-[4-methoxy-3-(5-phenylpentyloxy)phenyl]morpholin-5-one]
18 | 7200 nM | COc1ccc(C2CNC(=O)CO2)cc1O[C@H]1CC[C@H](c2ccccc2)CC1 (relative stereo) [Compound No. 33, 2-[4-methoxy-3-(trans-4-phenylcyclohexyloxy)phenyl]morpholin-5-one]
19 | 300 nM | COc1ccc(C2CN(C)C(=O)CO2)cc1OCCc1cccc2ccccc12 (stereo not drawn) [Compound No. 47]
20 | 310 nM | COc1ccc(C2CN(C)C(=O)CO2)cc1OCC1(c2ccccc2)CC1 (stereo not drawn) [Compound No. 42, 2-[3-[(1-phenylcyclopropyl)methoxy]-4-methoxyphenyl]-4-methylmorpholin-5-one]
21 | 100 nM | COc1ccc(C2CN(C)C(=O)CO2)cc1OCCC1Cc2ccccc2C1 (stereo not drawn) [Compound No. 51, 2-[3-[2-(2-indanyl)ethoxy]-4-methoxvphenyl]-4-methylmorpholin-5-one]
22 | 570 nM | COc1ccc(C2CN(C)C(=O)CO2)cc1OCCOCc1ccccc1 (stereo not drawn) [Compound No. 46, 2-[4-methoxy-3-(2-benzyloxyethoxy)phenyl]-4-methylmorpholin-5-one]
23 | 30 nM | COc1ccc(C2(C)CN(C)C(=O)CO2)cc1OC1Cc2ccccc2C1 (stereo not drawn) [Compound No. 28, 2.4-dimethyl-2-[3-(2-indanyloxy)-4-methoxyphenyl]morpholin-5-one]
24 | 3800 nM | COc1ccc(C2CNC(=O)CO2)cc1OCCC1Cc2ccccc2C1 (stereo not drawn) [Compound No. 50, 2-[3-[2-(2-indanyl)ethoxy]-4-methoxyphenyl]morpholin-5-one]
25 | 770 nM | COc1ccc(C2CN(C)C(=O)CO2)cc1OCC1CCCC1 (stereo not drawn) [Compound No. 44, 2-(3-cyclopentylmethoxy-4-methoxyphenyl)-4-methylmorpholin-5-one]
26 | 2700 nM | COc1ccc(C2CNC(=O)CO2)cc1OCCc1cccc2ccccc12 (stereo not drawn) [Compound No. 37, 2-[4-methoxy-3-[2-(1-naphthyl)ethoxy]phenyl]morpholin-5-one]
27 | 380 nM | COc1ccc(C2CN(C)C(=O)CO2)cc1OCCc1ccc(F)cc1 (stereo not drawn) [Compound No. 41, 2-[3-[2-(4-fluorophenyl)ethoxy]-4-methoxyphenyl]-4-methylmorpholin-5-one]
28 | 93 nM | CCN1CC(c2ccc(OC)c(OC3Cc4ccccc4C3)c2)OCC1=O (stereo not drawn) [Compound No. 40, 4-ethyl-2-[3-(2-indanyloxy)-4-methoxyphenyl]morpholin-5-one]
29 | 380 nM | COc1ccc(C2CN(C)C(=O)CO2)cc1OCC1CCC1 (stereo not drawn) [Compound No. 48, 2-(3-cyclobutylmethoxy-4-methoxyphenyl)-4-methylmorpholin-5-one]
30 | 1700 nM | COc1ccc(C2CNC(=O)CO2)cc1OCCc1ccc(F)cc1 (stereo not drawn) [Compound No. 32, 2-[3-[2-(4-fluorophenyl)ethoxy]-4-methoxyphenyl]morpholin-5-one]
31 | 2800 nM | COc1ccc(C2CN(C)C(=O)CO2)cc1OCC1CC1 (stereo not drawn) [Compound No. 52, 2-(3-cyclopropylmethoxy-4-methoxyphenyl)-4-methylmorpholin-5-one]
32 | 1900 nM | COc1ccc(C2CNC(=O)CO2)cc1OCC1(c2ccccc2)CC1 (stereo not drawn) [Compound No. 34, 2-[4-methoxy-3-[(1-phenylcyclopropyl)methoxy]phenyl]morpholin-5-one]
33 | 580 nM | COc1ccc(C2CN(C)C(=O)CO2)cc1O[C@H]1CC[C@H](c2ccccc2)CC1 (relative stereo) [Compound No. 45, 2-[4-methoxy-3-(trans-4-phenylcyclohexyloxy)phenyl]-4-methylmorpholin-5-one]
34 | 480 nM | COc1ccc(C2CN(C)C(=O)CO2)cc1OCCCCCc1ccccc1 (stereo not drawn) [Compound No. 29, 2-[4-methoxy-3-(5-phenylpentyloxy)phenyl]-4-methylmorpholin-5-one]
35 | 610 nM | COc1ccc(C2CN(C)C(=O)CO2)cc1OCC1(C)CC1 (stereo not drawn) [Compound No. 43]
36 | 350 nM | COc1ccc(C2CN(C)C(=O)CO2)cc1OCC(C)C (stereo not drawn) [Compound No. 49, 2-[3-(2-methylpropoxy)-4-methoxyphenyl]-4-methylmorpholin-5-one]

Reference: patent US6265402A, “Use of 2-phenylmorpholin-5-one derivatives” (Nikken Chemicals Co., Ltd., priority 1996, dated 2001)
